Test results published in patent publication US5264445A, “(-)-N"-cyano-N-3-pyridyl-N'-1,2,2-trimethylpropylguanidine” (Eli Lilly and Company, priority 1992, dated 1993).

Key:
[1] = system: phenylephrine-contracted cephalic veins; test: Canine cephalic vein assay: relaxing phenylephrine-contracted cephalic veins; format: cell-based; details: relaxing phenylephrine-contracted canine cephalic veins in vitro, ±SEM
Method: (§1) All six compounds were tested in the Purkinje fiber and canine cephalic vein assays taught by Steinberg et al., Journal of Cardiovascular Pharmacology, 12 (Suppl. 2), S30-S40 (1988). The effective concentration for reducing the Purkinje fiber action potential duration and for relaxing phenylephrine-contracted cephalic veins, respectively, otherwise known as the EC50, was determined for each compound and is reported in Table I.

[2] = system: spontaneously hypertensive rats; details: cited from earlier work
Purkinje fiber = Purkinje fiber assay: reducing the Purkinje fiber action potential duration; format: cell-based; details: reducing canine Purkinje fiber action potential duration in vitro, ±SEM
Method: as §1

potassium channels [3] = test: Potency as potassium channel opener (comparison of isomers); details: compared with its (+) enantiomer, pinacidil, or any of the pinacidil enantiomers
From the text: Pinacidil is currently undergoing clinical trials to determine its antihypertensive potential. By virtue of the branched N-alkyl side chain, pinacidil is a mixture of two enantiomers. Recently, both enantiomers have been prepared and studied -- see, Weston et al., Drugs, 36 (Suppl. 7), 10 (1988).

potassium channels [4] = details: reported by Weston et al., Drugs, 36 (Suppl. 7), 10 (1988); cited from earlier work
[5] = Canis lupus familiaris, purkinje

Row | EC50 ([1]; Canis lupus familiaris) | EC50 (Purkinje fiber; [5]) | EC50 [1] | EC50 (Purkinje fiber) | SMILES | minimal effective dose (MED) to decrease blood pressure [2] | relative potency as a potassium channel opener (potassium channels [3]) | relative potency of pinacidil enantiomers (potassium channels [4])
1 | 760 ± 120 nM | 3000 ± 1000 nM |  |  | CC(N/C(=N\C#N)Nc1ccncc1)C(C)(C)C (racemic) [(±)-Pinacidil, N"-cyano-N-4-pyridyl-N'-1,2,2-trimethylpropylguanidine] | 0.5 mg/kg |  | 
2 | 560 ± 140 nM | 500 ± 30 nM |  |  | CC(NC(=NC#N)Nc1cccnc1)C(C)(C)C (racemic) [N"-cyano-N-3-pyridyl-N'-1,2,2-trimethylpropylguanidine] | 1 mg/kg |  | 
3 |  |  | 440 ± 100 nM | 3200 ± 1200 nM | CC(NC(=NC#N)Nc1ccncc1)C(C)(C)C (single isomer, unassigned; (-)) [(-)-Pinacidil] |  |  | more potent than the (+) isomer

Continued, molecule first:

Row | SMILES | EC50 ([1]; Canis lupus familiaris) | EC50 (Purkinje fiber; [5]) | EC50 [1] | EC50 (Purkinje fiber) | minimal effective dose (MED) to decrease blood pressure [2] | relative potency as a potassium channel opener (potassium channels [3]) | relative potency of pinacidil enantiomers (potassium channels [4])
4 | CC(NC(=NC#N)Nc1cccnc1)C(C)(C)C (single isomer, unassigned; (+)) [(+)-N"-cyano-N-3-pyridyl-N'-1,2,2-trimethylpropylguanidine] |  |  | 6410 ± 1800 nM | 23000 ± 4700 nM |  |  | 
5 | CC(NC(=NC#N)Nc1ccncc1)C(C)(C)C (single isomer, unassigned; (+)) [(+)-Pinacidil] |  |  | 9550 ± 70 nM | 55000 ± 9600 nM |  |  | 
6 | CC(NC(=NC#N)Nc1cccnc1)C(C)(C)C (single isomer, unassigned; (-)) [(-)-N"-cyano-N-3-pyridyl-N'-1,2,2-trimethylpropylguanidine] |  |  | 90 ± 30 nM | 430 ± 260 nM |  | considerably more potent | 
